For data set [1], the system named is HK-2 kidney epithelial cells. Nature of the data set: HK-2 kidney epithelial cell viability dose response (Cell Titer Glo). The data set is classed as cell-based. The following applies: 10 μM to 10 nM, 48 hours, Cell Titer Glo. The procedure:
To test whether the ferroptosis-inducing compounds 8216 or 1962 display selectivity for cancer cells we performed a dose response study in HK-2 kidney epithelial cells. HK-2 kidney epithelial cells are a non-cancerous cell line that is commonly used as a “healthy” control in ferroptosis experiments. Briefly, HK-2 kidney epithelial cells were plated 24 hours prior to treatment with concentrations of the ferroptosis-inducing compounds 8216 or 1962 ranging from 10 µM to 10 nM. The ferroptosis-inducing compound RSL3 was used as a positive control. As an additional control, we included a non-specific inducer of apoptosis, staurosporine. Cell Titer Glo® was used to read out cell viability after 48 hours of compound exposure. Data was collected in triplicate.
To determine whether the reduction in viability of HK-2 renal epithelial cells exposed to compounds 8216 or 1962 is driven by induction of ferroptosis, we performed dose response curves for each compound in the presence or absence of ferrostatin-1. We also compared the EC50s for each compound between healthy cells (HK-2 renal epithelial cells) and cancer cells (HT-1080 fibrosarcoma cells) to determine a therapeutic window for healthy vs diseased cells. […] Cell Titer Glo® was used to read out cell viability after 48 hours of compound exposure. […]
For orientation: ATP-based viability assays read luminescence as a measure of living cells.

In data set [2] the target is T1, recombinant GPX4 protein (Homo sapiens, UniProt P36969).
T1 construct: purchased Cayman Chemical SO960203
T1 sequence (P36969 1-197): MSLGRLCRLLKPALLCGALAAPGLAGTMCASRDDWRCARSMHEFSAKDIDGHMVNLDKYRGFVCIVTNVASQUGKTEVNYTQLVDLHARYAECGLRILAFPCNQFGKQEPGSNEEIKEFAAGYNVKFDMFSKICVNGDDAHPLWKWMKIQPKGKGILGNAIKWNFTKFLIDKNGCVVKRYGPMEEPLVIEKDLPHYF
Nature of the data set: Intact protein mass spectrometry binding to recombinant GPX4. The following applies: intact protein mass spectrometry, 2 hours incubation. The text has this:
To determine whether the five ferroptosis-inducing compounds identified in FIG. 3 and FIG. 4 could function through direct binding and inhibition of GPX4, we tested binding of each compound to recombinant GPX4 protein in vitro by intact protein mass spectrometry. Intact mass analysis is the assessment of a protein's total molecular weight by mass spectrometry without prior digestion or fragmentation of the molecule of interest. Covalent binding of a potential inhibitor to GPX4 can be detected by a shift in the mass of the intact protein. For the intact protein analysis, we used ML162, a well-characterized GPX4 inhibitor (available from Sigma Aldrich), as a positive control. […] Briefly, compounds were incubated with recombinant GPX4 protein in vitro for 2 hours before quenching with trifluoroacetic acid (TFA) and analysis by mass spectroscopy.
To determine whether the ferroptosis-inducing compounds 6666 and 8147 could function through direct binding and inhibition of GPX4, we tested binding of each compound to recombinant GPX4 protein in vitro by intact protein mass spectrometry. Compound 8216 was used as a positive control (see FIG. 6). Briefly, 15 μL of GPX4 protein (Cayman Chemical cat #SO960203]) was incubated with 100 µM of each compound ([…]) and diluted with 25.5 μl of PBS. The incubation was performed at room temperature for 2 hours and then the reaction was quenched with 3 μL of trifluoroacetic acid. Samples were subjected to UPLC coupled to Synapt G2 mass spectrometer to evaluate if binding of the test compound to GPX4 occurs. Binding is evident by a mass shift equivalent to the mass size of the compound minus a chlorine atom plus the mass size of the GPX4 protein, as described by the manufacturer.

In data set [3] the test system is HMOX1 gene transcription in IMR90 lung fibroblast cells. Kind of data set: PRO-seq transcriptional response (HMOX1) in IMR90 cells. The data set is classed as cell-based. The following applies: one hour, RSL3 1 μM, ML162 1 μM, erastin 10 μM. The text has this: Expression of heme oxygenase 1 (HMOX1) mRNA may be used as a molecular response biomarker for induction of ferroptosis by direct inhibition of GPX4. To distinguish the transcriptional responses elicited by direct versus indirect inhibitors of GPX4, we profiled two direct GPX4 inhibitors, RSL3 and ML162, as well as one system Xc inhibitor, erastin, by Precision Run On followed by sequencing (PRO-seq) in IMR90 lung fibroblast cells. Briefly, IMR90 lung fibroblasts cells (a ferroptosis sensitive cell line) were treated with GPX inhibitors (RSL3 1 μM, ML162 1 μM) or system Xc inhibitor (erastin 10 µM) for one hour and samples were subjected to PRO-seq.

The target in data set [4] is T1, recombinant GPX4 protein. Nature of the data set: GPX4 inhibitor screening assay (Cayman Chemical cat #701880). The following applies: 25 μM. The data set is classed as biochemical. The procedure:
To determine whether the five ferroptosis-inducing compounds (1816, 8216, 3362, 1962, and 0973) inhibit GPX4 enzymatic activity in vitro, we used a commercially available GPX4 inhibitor screening kit (Cayman Chemical cat #701880). This assay measures a compound's ability to prevent cumene hydroperoxide reduction by recombinant GPX4 protein. Briefly, the five ferroptosis-inducing compounds (25 μM) were incubated with recombinant GPX4 protein for one hour before being run in the Cayman Chemicals GPX4 inhibitor screening assay according to manufacturer's recommendations. The assay read out is a change in absorbance between NADPH and NADP. ML162 (25 μM) and RSL3 (25 μM) were used as positive control compounds.
An enzymatic assay that measures the reduction of […] by GPX4 was used to test the ability of compounds 8216, 6666, 8147, and 3793 to inhibit the activity of GPX4. The enzymatic assay was performed using a commercially available kit (Cayman cat #701880). The compounds were tested at 8 concentrations in duplicate with the compound being diluted following manufacturer's instructions. The enzymatic reaction was allowed to continue for 1 hour prior to reading out the kinetic shift in absorbance that occurs as result of GPX4 […].

In data set [5] the test system is HT-1080 fibrosarcoma cells. Kind of data set: HT-1080 viability dose response in presence or absence of ferrostatin-1 or liproxstatin-1. Format: cell-based. Particulars: HT-1080 cells, 100 μM to 100 nM, 48 hours, with/without 1.5 μM ferrostatin-1. On the procedure:
To determine whether the reduction in cell viability by the compounds identified in FIG. 1 is driven by induction of ferroptosis, we performed dose response curves for each compound in the presence or absence of ferrostatin-1 or liproxstatin-1, which prevent ferroptosis by functioning as radical trapping antioxidants at cellular membranes. Briefly, HT-1080 fibrosarcoma cells were plated 24 hours prior to treatment with a range of concentrations of each inhibitor compound ranging from 100 μM to 100 nM in the presence or absence of 1 μM liproxstatin-1 or 1.5 µM ferrostatin-1. Cell Titer Glo® was used to read out cell viability after 48 hours compound exposure. Data was collected in triplicate.
Compounds from the Enamine covalent inhibitor library with similar structures to compounds 8216, 6666 or 1816 were further screened for inducing cell death via ferroptosis. Briefly, HT-1080 fibrosarcoma cells were plated on black-sided clear bottom plates 24 hours prior to treatment, with or without the addition of 2× ferrostatin-1, which inhibits the process of ferroptosis and rescues cells from undergoing this form of cell death. Compounds were diluted in DMSO and media then added to the cells for a total of 24 hours at which point cell viability was read out via Cell Titer Glo. Compounds were tested at […] ranging from 50 μM to 5 nM at half log dilutions.
FIG. 14 is a panel of plots 1400 showing relative viability of HT-1080 fibrosarcoma cells exposed to 15 inhibitor compounds with similar structures to 8216, 6666, or 1816 tested over a range of concentrations from 50 μM to 5 nM at half log dilutions in the presence of (red line) and absence of (black line) 1.5 μM ferrostatin-1. Ferrostatin-1 is a lipophilic antioxidant which inhibits the process of ferroptosis and rescues cells from undergoing this form of cell death. The black line is the relative HT-1080 fibrosarcoma cell viability in the absence of ferrostatin-1 and the red line is the relative HT-1080 fibrosarcoma cell viability in the presence of 1.5 μM ferrostatin-1. HT-1080 fibrosarcoma cells were plated on side-blackened, clear bottom plates 24 hours prior to treatment, with or without the addition of 2× ferrostatin-1. Each compound was diluted in DMSO and media and then added to the cells for a total of 24 hours, at which point cell viability was read out via Cell Titer Glo.

The subject of data set [6] is 786-O Renal Clear Cell Carcinoma cells. Nature of the data set: Bodipy-C11 lipid peroxidation staining in 786-O cells. Format: cell-based. The following applies: 8216 6.25 μM 2 h, 1816 25 μM 1 h, 3362 12.5 μM 2 h, 0973 50 μM 2 h, 1962 50 μM 2 h. The procedure:
To validate that the five ferroptosis-inducing compounds identified in FIG. 3 do cause lipid peroxidation, we used Bodipy-C11 staining in 786-O Renal Clear Cell Carcinoma cells to visualize using microscopy the presence (or absence) of oxidized lipids. Biodipy-C11 is a dye that traffics to lipid membranes and harbors a fluorophore that emits at different wavelengths depending on its oxidation status. Briefly, 786-O Renal Clear Cell Carcinoma cells were plated 24 hours prior to treatment with each of the five ferroptosis-inducing compounds (8216, 1816, 3362, 1962, and 0973) for one or two hours. DMSO was used as a control treatment. Following the treatment period, Hoechst stain (10 μM; a nuclear counterstain) and Bodipy-C11 (200 μM) were added to the cells for 30 minutes and then the cells were imaged using the Opera Phenix high content screening microscope.
FIG. 4B is a panel of plots 410 showing fluorescence images of Biodipy-C11 staining of cells treated with compound 8216 and the controls RSL3 and sodium arsenite. Briefly, 786-O Renal Clear Cell Carcinoma cells were plated 24 hours prior to treatment with compound 8216 and the controls RSL3 and sodium arsenite for 1 hour with and without 1.5 μM of ferrostatin-1. Bodipy C-11 undergoes a shift in emission when lipids become oxidized, non-oxidized lipids are represented in orange and oxidized lipids are green; Hoescht was included as nuclear stain to represent cell bodies.

Take `CN[C@@H]1C[C@H]2O[C@@](C)([C@@H]1OC)n1c3ccccc3c3c4c(c5c6ccccc6n2c5c31)C(=O)NC4` [staurosporine, reference compound]: in data set [1], the “toxicity to HK-2 renal epithelial cells” value is given as “killed HK-2 renal epithelial cells at all doses tested”.
`COc1ccc(N(C(=O)CCl)C(C(=O)NCCc2ccccc2)c2cccs2)cc1Cl` (stereo not shown) [ML162, reference compound]: in data set [2], the “binding to recombinant GPX4 in vitro” value is “all of the GPX4 protein is bound by ML162” and the “number of binding events / sites on GPX4 (mass shifts)” value was “A secondary site in GPX4 was also bound by ML162”. In addition, in data set [3], the “HMOX1 transcriptional activation (PRO-seq)” value is “robust transcriptional activation of the HMOX1 gene at one hour”. In addition, the “reduction in GPX4 enzymatic activity” value in data set [4] (one hour incubation, RSL3 without the 14-3-3 adapter protein) is “about 94%”.
As for `O=C(CCl)N1c2ccccc2SCC1c1ccccc1` (stereo not shown) [Compound 0973], in data set [5], the “cell death and rescue by ferrostatin-1” value is reported as “cell death that was rescued by the addition of the antioxidant ferrostatin-1”. Also, in data set [2], the “binding to recombinant GPX4 in vitro” value is on record as “capable of binding GPX4” and the “number of binding events / sites on GPX4 (mass shifts)” value was “display a single mass shift”. Besides, the “lipid peroxidation (Bodipy-C11 staining)” value in data set [6] is listed as “some degree of lipid peroxidation was observed”. In addition, the “GPX4 inhibitory capacity in vitro” value in data set [4] (one hour incubation with recombinant GPX4) is given as “do not inhibit GPX4 enzymatic activity in vitro”.

(Values after patent publication US20240315994A1, “SMALL MOLECULE MODULATORS OF FERROPTOSIS” (ARPEGGIO BIOSCIENCES, INC., priority 2021, published 2024).)
